Laboratory results from US7713965B2, “7-substituted 3-carboxy-oxadiazino-quinolone derivatives, their preparation and their application as anti-bacterials” (Vetoquinol SA, priority 2008, dated 2010).
In brackets after ≈: the same amount, converted by molar mass.

How the values were obtained:
Assay type in all cases: cell-based
Clostridium perfringens = test: microbe, parasite or virus in culture; conditions: read-out: MIC Clo per
[1] = test system: Pseudomonas aeruginosa (s = susceptible); test: MIC determination by microdilution in liquid medium, Pse aer s; conditions: susceptible strain
[2] = test system: Staphylococcus aureus (s = susceptible); test: MIC determination by microdilution in liquid medium, Sta aur s; conditions: susceptible strain
[3] = test system: Staphylococcus aureus (r = resistant); test: MIC determination by microdilution in liquid medium, Sta aur r; conditions: read-out: MIC Sta aur r
[4] = test system: Mannheimia haemolytica (r = resistant); test: MIC determination by microdilution in liquid medium, Man hae r; conditions: resistant strain
[5] = test system: Mannheimia haemolytica (s = susceptible); test: MIC determination by microdilution in liquid medium, Man hae s; conditions: susceptible strain
[6] = test system: Pseudomonas aeruginosa (r = resistant); test: MIC determination by microdilution in liquid medium, Pse aer r; conditions: read-out: MIC Pse aer r
[7] = test system: Bordetella bronchiseptica; test: MIC determination by microdilution in liquid medium, Bor bron
M. bovirhinis = test: MIC determination by microdilution in liquid medium, M. bovirhinis; conditions: Mycoplasma
Streptococcus uberis = test: MIC determination by microdilution in liquid medium, Str ube
Escherichia coli = test: MIC determination by microdilution in liquid medium, E coli
Mycoplasma bovis = test: MIC determination by microdilution in liquid medium, Myc bov; conditions: Mycoplasmopsis bovis
E. coli ATCC 25922 = test: MIC determination by microdilution in liquid medium, E. coli ATCC 25922; conditions: Escherichia coli, ATCC25922
E. faecalis ATCC 29212 = test: MIC determination by microdilution in liquid medium, E. faecalis ATCC 29212; conditions: Enterococcus faecalis, ATCC29212, read-out: MIC E. fae-calis ATCC 29212

| SMILES | MIC (Clostridium perfringens) | MIC [1] | MIC [2] | MIC [3] | MIC [4] | MIC [5] | MIC [6] | MIC [7] | MIC (M. bovirhinis) | MIC (Streptococcus uberis) | MIC (Escherichia coli) | MIC (Mycoplasma bovis) | MIC (E. coli ATCC 25922) | MIC (E. faecalis ATCC 29212) |
| --- | --- | --- | --- | --- | --- | --- | --- | --- | --- | --- | --- | --- | --- | --- |
| CN1COc2c(N3CC(N)C(C)(C)C3)c(F)cc3c(=O)c(C(=O)O)cn1c23 (racemic) [Example 33, 9-((R,S)-4-Amino-3,3-dimethyl-pyrrolidin-1-yl)-8-fluoro-3-methyl-6-oxo-2,3-dihydro-6H-1-oxa-3,3a-diaza-phenalene-5-carboxylic acid] | 0.06 mg/L (≈ 0.159 µM) | 0.5 mg/L (≈ 1.33 µM) | < 0.03 mg/L | 2 mg/L (≈ 5.31 µM) | 8 mg/L (≈ 21.3 µM) | 0.06 mg/L (≈ 0.159 µM) | 8 mg/L (≈ 21.3 µM) | 0.5 mg/L (≈ 1.33 µM) | 0.25 mg/L (≈ 0.664 µM) | 0.12 mg/L (≈ 0.319 µM) | 0.06 mg/L (≈ 0.159 µM) | 0.5 mg/L (≈ 1.33 µM) | 0.03 mg/L (≈ 0.0797 µM) | – |
| CN1COc2c(N3CCC(CNc4cnccn4)C3)c(F)cc3c(=O)c(C(=O)O)cn1c23 (stereo not shown) [Example 1, 8-fluoro-3-methyl-6-oxo-9-[3-(pyrazin-2-ylaminomethyl)-pyrrolidin-1-yl]-2,3-dihydro-6H-1-oxa-3,3a-diaza-phenalene-5-carboxylic acid] | 0.06 mg/L (≈ 0.136 µM) | 8 mg/L (≈ 18.2 µM) | < 0.03 mg/L | 0.5 mg/L (≈ 1.14 µM) | 16 mg/L (≈ 36.3 µM) | 0.06 mg/L (≈ 0.136 µM) | 16 mg/L (≈ 36.3 µM) | 0.5 mg/L (≈ 1.14 µM) | 0.06 mg/L (≈ 0.136 µM) | < 0.03 mg/L | 0.25 mg/L (≈ 0.568 µM) | < 0.03 mg/L | 0.12 mg/L (≈ 0.272 µM) | ≤ 0.03 mg/L |
| CN1COc2c(N3CCC(Nc4cnccn4)C3)c(F)cc3c(=O)c(C(=O)O)cn1c23 (stereo not shown) [Example 7] | 0.06 mg/L (≈ 0.141 µM) | 2 mg/L (≈ 4.69 µM) | < 0.03 mg/L | 0.5 mg/L (≈ 1.17 µM) | 16 mg/L (≈ 37.5 µM) | 0.06 mg/L (≈ 0.141 µM) | 16 mg/L (≈ 37.5 µM) | 0.5 mg/L (≈ 1.17 µM) | 0.06 mg/L (≈ 0.141 µM) | 0.06 mg/L (≈ 0.141 µM) | 0.25 mg/L (≈ 0.586 µM) | < 0.03 mg/L | 0.25 mg/L (≈ 0.586 µM) | ≤ 0.03 mg/L |
| CN1COc2c(N3CCC(Nc4ccccn4)C3)c(F)cc3c(=O)c(C(=O)O)cn1c23 (stereo not shown) [Example 8] | < 0.03 mg/L | 8 mg/L (≈ 18.8 µM) | 0.06 mg/L (≈ 0.141 µM) | 4 mg/L (≈ 9.4 µM) | 32 mg/L (≈ 75.2 µM) | 0.25 mg/L (≈ 0.588 µM) | > 32 mg/L | > 1 mg/L | 0.06 mg/L (≈ 0.141 µM) | 0.25 mg/L (≈ 0.588 µM) | 0.5 mg/L (≈ 1.18 µM) | 0.06 mg/L (≈ 0.141 µM) | 0.12 mg/L (≈ 0.282 µM) | 0.25 mg/L (≈ 0.588 µM) |
| CN1COc2c(N3CCC(Nc4nncs4)C3)c(F)cc3c(=O)c(C(=O)O)cn1c23 (stereo not shown) [Example 10, 8-Fluoro-3-methyl-6-oxo-9-[3-([1,3,4]thiadiazol-2-ylamino)-pyrrolidin-1-yl]-2,3-dihydro-6H1-oxa-3,3a-diaza-phenalene-5-carboxylic acid] | < 0.03 mg/L | 4 mg/L (≈ 9.25 µM) | < 0.03 mg/L | 4 mg/L (≈ 9.25 µM) | > 32 mg/L | 0.03 mg/L (≈ 0.0694 µM) | > 32 mg/L | 2 mg/L (≈ 4.62 µM) | 2 mg/L (≈ 4.62 µM) | < 0.03 mg/L | 0.25 mg/L (≈ 0.578 µM) | 0.12 mg/L (≈ 0.277 µM) | 1 mg/L (≈ 2.31 µM) | 0.25 mg/L (≈ 0.578 µM) |
| CN1COc2c(N3CC[C@H](Nc4nccs4)C3)c(F)cc3c(=O)c(C(=O)O)cn1c23 [Example 18, 8-Fluoro-3-methyl-6-oxo-9-[(S)-3-(thiazol-2-ylamino)-pyrrolidin-1-yl]-2,3dihydro-6H-1-oxa-3,3a-diaza-phenalene-5-carboxylic acid] | 0.06 mg/L (≈ 0.139 µM) | 4 mg/L (≈ 9.27 µM) | < 0.03 mg/L | 4 mg/L (≈ 9.27 µM) | > 32 mg/L | 0.12 mg/L (≈ 0.278 µM) | 32 mg/L (≈ 74.2 µM) | 0.25 mg/L (≈ 0.579 µM) | ≤ 0.03 mg/L | 0.25 mg/L (≈ 0.579 µM) | 0.5 mg/L (≈ 1.16 µM) | 0.25 mg/L (≈ 0.579 µM) | 0.06 mg/L (≈ 0.139 µM) | ≤ 0.03 mg/L |
| CN1COc2c(N3CC[C@@H](Nc4nccs4)C3)c(F)cc3c(=O)c(C(=O)O)cn1c23 [Example 19, 8-Fluoro-3-methyl-6-oxo-9-[(R)-3-(thiazol-2-ylamino)-pyrrolidin-1-yl]-2,3-dihydro-6H-1-oxa-3,3a-diaza-phenalene-5-carboxylic acid] | < 0.03 mg/L | 2 mg/L (≈ 4.64 µM) | < 0.03 mg/L | 0.25 mg/L (≈ 0.579 µM) | 8 mg/L (≈ 18.5 µM) | 0.03 mg/L (≈ 0.0695 µM) | 8 mg/L (≈ 18.5 µM) | 0.12 mg/L (≈ 0.278 µM) | 0.25 mg/L (≈ 0.579 µM) | < 0.03 mg/L | 0.06 mg/L (≈ 0.139 µM) | < 0.03 mg/L | 0.25 mg/L (≈ 0.579 µM) | 0.06 mg/L (≈ 0.139 µM) |
| CN1COc2c(N3CCC(NC(=O)C(F)(F)F)C3)c(F)cc3c(=O)c(C(=O)O)cn1c23 (stereo not shown) [Example 27, 8-Fluoro-3-methyl-6-oxo-9-[3-(2,2,2-trifluoro-acetylamino)-pyrrolidin-1-yl]-2,3-dihydro-6H-1-oxa-3,3a-diaza-phenalene-5-carboxylic acid] | 0.25 mg/L (≈ 0.563 µM) | 0.06 mg/L (≈ 0.135 µM) | 0.12 mg/L (≈ 0.27 µM) | 8 mg/L (≈ 18 µM) | 4 mg/L (≈ 9 µM) | 0.008 mg/L (≈ 0.018 µM) | 2 mg/L (≈ 4.5 µM) | 2 mg/L (≈ 4.5 µM) | 1 mg/L (≈ 2.25 µM) | 0.25 mg/L (≈ 0.563 µM) | 0.03 mg/L (≈ 0.0675 µM) | 1 mg/L (≈ 2.25 µM) | 0.03 mg/L (≈ 0.0675 µM) | 2 mg/L (≈ 4.5 µM) |
| CN1COc2c(N3CC[C@H](NC(=O)C(F)(F)F)C3)c(F)cc3c(=O)c(C(=O)O)cn1c23 [Example 28, 8-Fluoro-3-methyl-6-oxo-9-[(S)-3-(2,2,2-trifluoro-acetylamino)-pyrrolidin-1-yl]-2,3-dihydro-6H-1-oxa-3,3a-diaza-phenalene-5-carboxylic acid] | 0.12 mg/L (≈ 0.27 µM) | 0.06 mg/L (≈ 0.135 µM) | 0.12 mg/L (≈ 0.27 µM) | 4 mg/L (≈ 9 µM) | 4 mg/L (≈ 9 µM) | 0.008 mg/L (≈ 0.018 µM) | 1 mg/L (≈ 2.25 µM) | 1 mg/L (≈ 2.25 µM) | – | 0.25 mg/L (≈ 0.563 µM) | 0.03 mg/L (≈ 0.0675 µM) | 1 mg/L (≈ 2.25 µM) | 0.03 mg/L (≈ 0.0675 µM) | 1 to 2 mg/L (≈ 2.25 to 4.5 µM) |
| CN1COc2c(N3CC[C@@H](NC(=O)C(F)(F)F)C3)c(F)cc3c(=O)c(C(=O)O)cn1c23 [Example 29, 8-Fluoro-3-methyl-6-oxo-9-[(R)-3-(2,2,2-trifluoro-acetylamino)-pyrrolidin-1-yl]-2,3-dihydro-6H-1-oxa-3,3a-diaza-phenalene-5-carboxylic acid] | 0.25 mg/L (≈ 0.563 µM) | 0.25 mg/L (≈ 0.563 µM) | 0.12 mg/L (≈ 0.27 µM) | 8 mg/L (≈ 18 µM) | 8 mg/L (≈ 18 µM) | 0.03 mg/L (≈ 0.0675 µM) | 4 mg/L (≈ 9 µM) | > 1 mg/L | 1 mg/L (≈ 2.25 µM) | 0.5 mg/L (≈ 1.13 µM) | 0.06 mg/L (≈ 0.135 µM) | 0.5 mg/L (≈ 1.13 µM) | 0.06 mg/L (≈ 0.135 µM) | 1 to 2 mg/L (≈ 2.25 to 4.5 µM) |
| CN1COc2c(N3C[C@H](N)C(C)(C)C3)c(F)cc3c(=O)c(C(=O)O)cn1c23 [Example 35, 9-((R)-4-Amino-3,3-dimethyl-pyrrolidin-1-yl)-8-fluoro-3-methyl-6-oxo-2,3-dihydro-6H-1-oxa-3,3a-diaza-phenalene-5-carboxylic acid] | 0.12 mg/L (≈ 0.319 µM) | 0.5 mg/L (≈ 1.33 µM) | 0.06 mg/L (≈ 0.159 µM) | 2 mg/L (≈ 5.31 µM) | 8 mg/L (≈ 21.3 µM) | 0.06 mg/L (≈ 0.159 µM) | 8 mg/L (≈ 21.3 µM) | 1 mg/L (≈ 2.66 µM) | – | 0.12 mg/L (≈ 0.319 µM) | 0.06 mg/L (≈ 0.159 µM) | 0.5 mg/L (≈ 1.33 µM) | 0.03 mg/L (≈ 0.0797 µM) | 0.25 mg/L (≈ 0.664 µM) |
